# Measured values as given in US9834534B2, “Neuraminidase inhibitor compounds, compositions and methods for the use thereof in anti-viral treatments” (THE UNIVERSITY OF BRITISH COLUMBIA, priority 2009, dated 2017).
# Where “and” joins values, the source holds several entries; their conditions need not be identical. Equal values may be shown once. Read-outs that look alike come from different tables or passages of the source.
# Assays:
# [1] = biological target: H1N1 OsR (Influenza A virus (H1N1), UniProt Q289M4)
# Sequence of H1N1 OsR (Q289M4 whole entry, looked up): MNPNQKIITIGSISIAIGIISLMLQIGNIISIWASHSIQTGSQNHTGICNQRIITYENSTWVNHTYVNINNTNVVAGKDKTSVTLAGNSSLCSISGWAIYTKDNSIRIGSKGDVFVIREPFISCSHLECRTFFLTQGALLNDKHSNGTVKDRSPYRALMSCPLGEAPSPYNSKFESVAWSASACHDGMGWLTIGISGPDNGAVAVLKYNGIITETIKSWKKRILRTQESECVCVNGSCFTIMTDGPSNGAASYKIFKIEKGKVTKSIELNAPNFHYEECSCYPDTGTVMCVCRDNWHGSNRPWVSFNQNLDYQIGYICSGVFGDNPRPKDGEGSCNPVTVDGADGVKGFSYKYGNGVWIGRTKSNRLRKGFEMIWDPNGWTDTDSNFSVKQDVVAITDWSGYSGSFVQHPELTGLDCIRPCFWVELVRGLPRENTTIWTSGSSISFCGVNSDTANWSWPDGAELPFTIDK
# [2] = biological target: H1N1 (Influenza A virus (H1N1), UniProt Q289M4)
# Sequence of H1N1 (Q289M4 whole entry, looked up): as above
# [3] = test system: A/New Caledonia (H1N1); type: cell-based, influenza A virus
# [4] = test system: influenza A/Brisbane/10/2007 (H3N2); experiment: microbe, parasite or virus in culture; type: cell-based, influenza A virus
# [5] = test system: influenza B/HongKong/5/72; experiment: microbe, parasite or virus in culture; type: cell-based, influenza B virus; settings: Influenza B virus, MDCK, read-out: Cytoprotective effect
# [6] = 1 mg/kg
# [7] = test system: influenza A/Denver/1/57 (H1N1); experiment: microbe, parasite or virus in culture; type: cell-based, influenza A virus; settings: Influenza A virus, H1N1, MDCK, read-out: Cytoprotective effect
# [8] = test system: influenza A virus, A/HK/1/68 (H3N2); set-up: species or system Balb/C mice (Mus musculus); settings: mouse, in vivo
# [9] = test system: A/Denver (H1N1); type: cell-based, influenza A virus
# [10] = biological target: influenza sialidase (subtype N9) (Influenza A virus, UniProt P03472); experiment: biochemical; type: biochemical
# Sequence of influenza sialidase (subtype N9) (P03472 whole entry, looked up): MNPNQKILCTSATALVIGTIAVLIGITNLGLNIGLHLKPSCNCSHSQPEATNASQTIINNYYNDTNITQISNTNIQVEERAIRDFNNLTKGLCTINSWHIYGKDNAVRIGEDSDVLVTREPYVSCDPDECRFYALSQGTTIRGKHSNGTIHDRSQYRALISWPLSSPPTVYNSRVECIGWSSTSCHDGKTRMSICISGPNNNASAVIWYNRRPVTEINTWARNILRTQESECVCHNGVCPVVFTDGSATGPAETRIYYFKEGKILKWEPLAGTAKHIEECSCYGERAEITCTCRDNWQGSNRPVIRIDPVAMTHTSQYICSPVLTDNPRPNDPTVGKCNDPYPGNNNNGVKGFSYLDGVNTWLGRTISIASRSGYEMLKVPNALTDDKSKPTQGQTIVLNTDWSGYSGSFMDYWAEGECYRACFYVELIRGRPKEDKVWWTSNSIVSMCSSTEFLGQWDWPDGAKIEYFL
# [11] = test system: A/Brisbane NML (H3N2); type: cell-based, influenza A virus
# [12] = test system: influenza B/Florida/04/06; type: cell-based
# [13] = test system: MDCK cells; settings: dog
smiles,measurement,setting,value
"CC(=O)NC1C(N)C(F)C(F)(C(=O)O)OC1[C@H](O)[C@H](O)CO (stereo in doubt) [Compound 2eq3eq4NH2, 5-Acetamido-2,4,5-trideoxy-4-amino-2α, 3β-difluoro-α-D-erythro-L-gluco-nonulo-pyranosonate]",Half life for reactivation,[1],2 h
same,ki,[1]; pH 7.6,4.7 ± 0.1 min⁻¹
same,Half life for reactivation,[2],4 h
"CC(=O)N[C@@H]1[C@@H](N)[C@@H](F)[C@](F)(C(=O)O)O[C@H]1[C@H](O)[C@H](O)CO [Compound 4, (2R,3R)-4-Amino-2,4-dideoxy-2,3-difluorosialic acid]",concentration of antiviral at which a confluent monolayer of MDCK cells was protected,[3],<12.854^A μM
same,Cytoprotective effect,[4],9.2 ng/mL
same,minimal effective concentration,"[4]; Influenza A virus, H3N2, MDCK, read-out: Cytoprotective effect",0.0069 µg/mL
same,minimal effective concentration,[5],1.78 µg/mL
same,% weight loss mean +/− SD,"[6]; mouse, in vivo",2.68 +/− 1.76%
same,number of animals remaining,[6]; n = 5,5
same,minimal effective concentration,[7],0.888 µg/mL
same,survival compared to the untreated control group,[8],somewhat extend survival
same,% weight loss mean +/− SD,[8]; 1 mg/kg,16.02 +/− 2.07%
same,concentration of antiviral at which a confluent monolayer of MDCK cells was protected,[9],<12.854^A μM
same,half time for the full inactivation of the sialidase,[10],ca. 10 min
same,half time for the full reactivation of the inactivated sialidase,[10],4.8 h
same,Kd,"[10]; 30° C., pH 7.6",4 µM
same,Ki,"[10]; 30° C., pH 7.6",93 nM and 93.2 nM
same,khyd,"[10]; 30° C., pH 7.6",0.0024 min⁻¹
same,concentration of antiviral at which a confluent monolayer of MDCK cells was protected,[11],51.415^B μM
same,Cytoprotective effect,[12]; Replicate 1,947 ng/mL
same,Cytoprotective effect,[12]; Replicate 2,1074 ng/mL
same,Toxicity,[13],3.6 µg/mL
